Data: patent US20210380606A1, “5-AZAINDAZOLE DERIVATIVES AS ADENOSINE RECEPTOR ANTAGONISTS” (Merck Patent GmbH, priority 2018, published 2021)

Legend:
human A2A receptors = target: T1, human A2A receptors (Homo sapiens, UniProt P29274); assay: Functional human A2A receptor activity, recombinant HEK293 cells, cAMP (HTRF); format: cell-based; conditions: read-out: A2A (Category)
T1 construct: expressed in transfected cells; host or cells: HEK293
Outline: (§1)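 Adenosine receptor activity tracked via second-messenger cAMP; incubation 15 min, then HTRF detection of cellular cAMP.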

human A2B receptors = target: T2, human A2B receptors (Homo sapiens, UniProt P29275); assay: Functional human A2B receptor activity, recombinant HEK293 cells, cAMP (HTRF); format: cell-based; conditions: read-out: A2B (Category)
T2 construct: expressed in transfected cells; host or cells: HEK293
T2 sequence (P29275 1-332): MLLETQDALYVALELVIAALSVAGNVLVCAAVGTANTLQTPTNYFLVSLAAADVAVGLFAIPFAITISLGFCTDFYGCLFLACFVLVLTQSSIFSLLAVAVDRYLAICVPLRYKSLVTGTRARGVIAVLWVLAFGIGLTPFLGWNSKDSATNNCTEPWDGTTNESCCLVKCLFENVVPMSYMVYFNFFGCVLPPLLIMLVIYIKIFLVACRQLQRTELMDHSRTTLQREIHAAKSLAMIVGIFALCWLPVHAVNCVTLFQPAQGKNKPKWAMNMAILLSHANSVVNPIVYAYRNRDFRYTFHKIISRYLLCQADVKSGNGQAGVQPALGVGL
Outline: as §1

T1 sequence (P29274 whole entry): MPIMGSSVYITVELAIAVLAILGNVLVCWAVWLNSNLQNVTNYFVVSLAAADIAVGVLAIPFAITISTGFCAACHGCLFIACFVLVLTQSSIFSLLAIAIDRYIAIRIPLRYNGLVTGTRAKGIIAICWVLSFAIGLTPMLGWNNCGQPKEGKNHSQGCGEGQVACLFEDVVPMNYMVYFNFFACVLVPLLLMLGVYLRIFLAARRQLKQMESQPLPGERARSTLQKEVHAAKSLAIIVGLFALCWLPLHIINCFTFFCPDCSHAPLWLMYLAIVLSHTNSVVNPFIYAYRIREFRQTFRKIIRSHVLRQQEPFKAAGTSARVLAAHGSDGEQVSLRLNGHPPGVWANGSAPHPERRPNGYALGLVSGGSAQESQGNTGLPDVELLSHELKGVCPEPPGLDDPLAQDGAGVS

SMILES | IC50 (human A2A receptors) | IC50 (human A2B receptors)
CC1(O)CCN(C(=O)c2cc3c(cn2)c(-c2cnn4ccccc24)nn3CC(F)(F)F)CC1 [Compound 117, (4-hydroxy-4-methyl-1-piperidyl)-[3-pyrazolo[1,5-a]pyridin-3-yl-1-(2,2,2-trifluoroethyl)pyrazolo[4,3-c]pyridin-6-yl]methanone] | < 100 nM | < 1000 nM
O=C(c1cc2c(cn1)c(-c1coc3ccc(F)cc13)nn2CC(F)(F)F)N1CCOCC(O)C1 (centres unmarked) [Compound 118, [3-(5-fluorobenzofuran-3-yl)-1-(2,2,2-trifluoroethyl)pyrazolo[4,3-c]pyridin-6-yl]-(6-hydroxy-1,4-oxazepan-4-yl)methanone] | < 100 nM | < 100 nM
O=C(c1cc2c(cn1)c(-c1cnn3ccccc13)nn2CC(F)(F)F)N1CCOCC(O)C1 (centres unmarked) [Compound 119, (6-hydroxy-1,4-oxazepan-4-yl)-[3-pyrazolo[1,5-a]pyridin-3-yl-1-(2,2,2-trifluoroethyl)pyrazolo[4,3-c]pyridin-6-yl]methanone] | < 100 nM | < 1000 nM
[2H]C1([2H])COCCN(C(=O)c2cc3c(cn2)c(-c2coc4ccc(F)cc24)nn3CC(F)(F)F)C1 [Compound 120, [3-(5-fluorobenzofuran-3-yl)-1-(2,2,2-trifluoroethyl)pyrazolo[4,3-c]pyridin-6-yl]-(6,6-dideuterio-1,4-oxazepan-4-yl)methanone] | < 100 nM | < 100 nM
[2H]C1([2H])COCCN(C(=O)c2cc3c(cn2)c(-c2cnn4ccccc24)nn3CC(F)(F)F)C1 [Compound 121, (6,6-dideuterio-1,4-oxazepan-4-yl)-[3-pyrazolo[1,5-a]pyridin-3-yl-1-(2,2,2-trifluoroethyl)pyrazolo[4,3-c]pyridin-6-yl]methanone] | < 100 nM | < 100 nM
O=C(c1cc2c(cn1)c(-c1coc3ccc(F)cc13)nn2CC(F)(F)F)N1CCCC(O)CC1 (centres unmarked) [Compound 122, [3-(5-fluorobenzofuran-3-yl)-1-(2,2,2-trifluoroethyl)pyrazolo[4,3-c]pyridin-6-yl]-(4-hydroxyazepan-1-yl)methanone] | < 100 nM | < 100 nM
O=C(c1cc2c(cn1)c(-c1c[nH]c3ccc(F)cc13)nn2CC(F)(F)F)N1CCCOCC1 [Compound 123, [3-(5-fluoro-1H-indol-3-yl)-1-(2,2,2-trifluoroethyl)pyrazolo[4,3-c]pyridin-6-yl]-(1,4-oxazepan-4-yl)methanone] | < 100 nM | < 100 nM
Cc1ccc2occ(-c3nn(CC(F)(F)F)c4cc(C(=O)N5CCCOCC5)ncc34)c2c1 [Compound 125, [3-(5-methylbenzofuran-3-yl)-1-(2,2,2-trifluoroethyl)pyrazolo[4,3-c]pyridin-6-yl]-(1,4-oxazepan-4-yl)methanone] | < 100 nM | < 1000 nM
Cc1oc2ccccc2c1-c1nn(CC(F)(F)F)c2cc(C(=O)N3CCCOCC3)ncc12 [Compound 126, [3-(2-methylbenzofuran-3-yl)-1-(2,2,2-trifluoroethyl)pyrazolo[4,3-c]pyridin-6-yl]-(1,4-oxazepan-4-yl)methanone] | < 100 nM | < 1000 nM
O=C(c1cc2c(cn1)c(-c1coc3ccc(F)cc13)nn2CC(F)(F)F)N1CC2CCC(C1)O2 [Compound 127, [3-(5-fluorobenzofuran-3-yl)-1-(2,2,2-trifluoroethyl)pyrazolo[4,3-c]pyridin-6-yl]-(8-oxa-3-azabicyclo[3.2.1]octan-3-yl)methanone] | < 100 nM | < 100 nM
O=C(c1cc2c(cn1)c(-c1cnc3ccc(F)cn13)nn2CC(F)(F)F)N1CCC(O)CC1 [Compound 131, [3-(6-Fluoro-imidazo[1,2-a]pyridin-3-yl)-1-(2,2,2-trifluoro-ethyl)-1H-pyrazolo[4,3-c]pyridin-6-yl]-(4-hydroxy-piperidin-1-yl)-methanone] | < 100 nM | < 1000 nM
O=C(c1cc2c(cn1)c(-c1cnc3c(F)cc(F)cn13)nn2CC(F)(F)F)N1CCC(O)CC1 [Compound 132, [3-(6,8-Difluoro-imidazo[1,2-a]pyridin-3-yl)-1-(2,2,2-trifluoro-ethyl)-1H-pyrazolo[4,3-c]pyridin-6-yl]-(4-hydroxy-piperidin-1-yl)-methanone] | < 100 nM | < 100 nM
CC1(O)CCN(C(=O)c2cc3c(cn2)c(-c2cnc4c(F)cc(F)cn24)nn3CC(F)(F)F)CC1 [Compound 133, [3-(6,8-Difluoro-imidazo[1,2-a]pyridin-3-yl)-1-(2,2,2-trifluoro-ethyl)-1H-pyrazolo[4,3-c]pyridin-6-yl]-(4-hydroxy-4-methyl-piperidin-1-yl)-methanone] | < 100 nM | < 1000 nM
O=C(c1cc2c(cn1)c(-c1cnc3c(F)cc(F)cn13)nn2CC(F)(F)F)N1CC2CC1CO2 (centres unmarked) [Compound 135, [3-(6,8-Difluoro-imidazo[1,2-a]pyridin-3-yl)-1-(2,2,2-trifluoro-ethyl)-1H-pyrazolo[4,3-c]pyridin-6-yl]-(2-oxa-5-aza-bicyclo[2.2.1]hept-5-yl)-methanone] | < 100 nM | < 1000 nM
CC1CC(O)CCN1C(=O)c1cc2c(cn1)c(-c1cnc3c(F)cc(F)cn13)nn2CC(F)(F)F (centres unmarked) [Compound 138, [3-(6,8-Difluoro-imidazo[1,2-a]pyridin-3-yl)-1-(2,2,2-trifluoro-ethyl)-1H-pyrazolo[4,3-c]pyridin-6-yl]-(4-hydroxy-2-methyl-piperidin-1-yl)-methanone] | < 100 nM | < 100 nM
O=C(c1cc2c(cn1)c(-c1cnc3c(F)cc(F)cn13)nn2CC(F)(F)F)N1CC2CCC(C2)C1 [Compound 139, (3-Aza-bicyclo[3.2.1]oct-3-yl)-[3-(6,8-difluoro-imidazo[1,2-a]pyridin-3-yl)-1-(2,2,2-trifluoro-ethyl)-1H-pyrazolo[4,3-c]pyridin-6-yl]-methanone] | < 100 nM | < 100 nM
CC(C)C1CC(O)CCN1C(=O)c1cc2c(cn1)c(-c1cnc3c(F)cc(F)cn13)nn2CC(F)(F)F (centres unmarked) [Compound 141, [3-(6,8-Difluoro-imidazo[1,2-a]pyridin-3-yl)-1-(2,2,2-trifluoro-ethyl)-1H-pyrazolo[4,3-c]pyridin-6-yl]-(4-hydroxy-2-isopropyl-piperidin-1-yl)-methanone] | < 100 nM | < 1000 nM
CC1(C)CC(O)CCN1C(=O)c1cc2c(cn1)c(-c1cnc3c(F)cc(F)cn13)nn2CC(F)(F)F (centres unmarked) [Compound 142, [3-(6,8-Difluoro-imidazo[1,2-a]pyridin-3-yl)-1-(2,2,2-trifluoro-ethyl)-1H-pyrazolo[4,3-c]pyridin-6-yl]-(4-hydroxy-2,2-dimethyl-piperidin-1-yl)-methanone] | < 100 nM | < 1000 nM
CC(C)CC1CN(C(=O)c2cc3c(cn2)c(-c2cnc4c(F)cc(F)cn24)nn3CC(F)(F)F)CCC1O (centres unmarked) [Compound 143, [3-(6,8-Difluoro-imidazo[1,2-a]pyridin-3-yl)-1-(2,2,2-trifluoro-ethyl)-1H-pyrazolo[4,3-c]pyridin-6-yl]-(4-hydroxy-3-isobutyl-piperidin-1-yl)-methanone] | < 100 nM | < 1000 nM
O=C(c1cc2c(cn1)c(-c1cnc3c(F)cc(F)cn13)nn2CC(F)(F)F)N1CCC(F)CC1 [Compound 144, [3-(6,8-Difluoro-imidazo[1,2-a]pyridin-3-yl)-1-(2,2,2-trifluoro-ethyl)-1H-pyrazolo[4,3-c]pyridin-6-yl]-(4-fluoro-piperidin-1-yl)-methanone] | < 100 nM | < 1000 nM
O=C(c1cc2c(cn1)c(-c1cnc3c(F)cc(F)cn13)nn2CC(F)(F)F)N1CCC(F)(F)CC1 [Compound 146, [3-(6,8-Difluoro-imidazo[1,2-a]pyridin-3-yl)-1-(2,2,2-trifluoro-ethyl)-1H-pyrazolo[4,3-c]pyridin-6-yl]-(4,4-difluoro-piperidin-1-yl)-methanone] | < 100 nM | < 1000 nM
O=C(c1cc2c(cn1)c(-c1cnc3c(F)cc(F)cn13)nn2CC(F)(F)F)N1CCC(O)(c2cccnc2)CC1 [Compound 147, [3-(6,8-Difluoro-imidazo[1,2-a]pyridin-3-yl)-1-(2,2,2-trifluoro-ethyl)-1H-pyrazolo[4,3-c]pyridin-6-yl]-(4′-hydroxy-3′,4′,5′,6′-tetrahydro-2′H-[3,4′]bipyridinyl-1′-yl)-methanone] | < 100 nM | < 1000 nM
O=C(c1cc2c(cn1)c(-c1cnc3c(F)cc(F)cn13)nn2CC(F)(F)F)N1CCC(O)(C(F)(F)F)CC1 [Compound 148, [3-(6,8-Difluoro-imidazo[1,2-a]pyridin-3-yl)-1-(2,2,2-trifluoro-ethyl)-1H-pyrazolo[4,3-c]pyridin-6-yl]-(4-hydroxy-4-trifluoromethyl-piperidin-1-yl)-methanone] | < 1000 nM | < 1000 nM
COCC1CCCN1C(=O)c1cc2c(cn1)c(-c1cnc3c(F)cc(F)cn13)nn2CC(F)(F)F (centres unmarked) [Compound 149, [3-(6,8-Difluoro-imidazo[1,2-a]pyridin-3-yl)-1-(2,2,2-trifluoro-ethyl)-1H-pyrazolo[4,3-c]pyridin-6-yl]-(2-methoxymethyl-pyrrolidin-1-yl)-methanone] | < 100 nM | < 1000 nM
O=C(c1cc2c(cn1)c(-c1cnc3c(F)cc(F)cn13)nn2CC(F)(F)F)N1CCCC(O)C1 (centres unmarked) [Compound 151, [3-(6,8-Difluoro-imidazo[1,2-a]pyridin-3-yl)-1-(2,2,2-trifluoro-ethyl)-1H-pyrazolo[4,3-c]pyridin-6-yl]-(3-hydroxy-piperidin-1-yl)-methanone] | < 100 nM | < 1000 nM
